Here are results for one compound from article PMC10046377, “Inhibitors of the Oncogenic PA2G4-MYCN Protein-Protein Interface” (Cancers, 2023).

In test [1] the test system is MRC-5 cells. Nature of the test: Alamar Blue cell viability assay, MRC-5 non-malignant myofibroblasts. The format is cell-based. The following applies: Homo sapiens, MRC5. The text has this: (§1) The MYCN amplified neuroblastoma cell line SK-N-BE(2)-C was kindly provided by Professor June Biedler (Memorial Sloan Kettering Cancer Centre, New York, NY, USA), and Kelly was obtained from European Collection of Cell Cultures. The two normal lung fibroblast cell lines (MRC-5 and WI-38) were purchased from ATCC. SK-N-BE(2)-C shMYCN#2 doxycycline-inducible cell and Kelly shMYCN#2 doxycycline-inducible cell were custom-made by GenScript (Piscataway, NJ, USA). SK-N-BE(2)-C, SK-N-BE(2)-C shMYCN#2, and SHEP MYCN3 doxycycline-inducible cells were maintained in Dulbecco’s modified Eagle’s medium (DMEM) (Invitrogen, Life Technologies, Waltham, MA, USA) with 10% foetal calf serum (FCS). Kelly and Kelly shMYCN#2 doxycycline-inducible cell were cultured in Roswell Park Memorial Institute (RPMI) 1640 (Invitrogen, Life Technologies) with 10% FCS. MRC-5 and WI-38 were cultured in Alpha-MEM media (Invitrogen, Life Technologies) with 10% FCS. All cells were not cultured for more than 2 months. All used cell lines were authenticated by Cell Bank Australia (Westmead, NSW, Australia) as being free from mycoplasma, and cultured at 37 °C and 5% CO2 in a humidifier incubator.
(§2) Cell viability was determined by the Alamar Blue assay (75 mg resazurin, 12.5 mg methylene blue, 164.5 mg potassium hexacyanoferrate (III), 211 mg potassium hexacyanoferrate (II) trihydrate in 500 mL of phosphate buffered saline). After 6 h incubation with Alamar Blue, the change of fluorescence was measured by Victor 3 multilabel Plate Reader (Perkin Elmer Australia, Melburne, Australia) at an excitation wavelength of 560 nm and an emission wavelength of 590 nm.
(§3) We have shown that the PA2G4 protein increased the half-life of the oncoprotein MYCN through direct binding, and competitive chemical inhibition of this bond by WS6 reduced tumorigenicity both in vitro and in vivo [11]. […] Here, we explored the structure–activity relationship (SAR) of WS6 analogue compounds with the aim to increase efficacy and reduce toxicity. […] The in vitro cytotoxicity of these 14 compounds were measured by cell viability assays using Alamar Blue in MYCN amplified human neuroblastoma (SK-N-BE(2)-C and Kelly) cell lines compared to non-malignant (WI-38, MRC-5) myofibroblast cell lines (Figure 1B,C and Supplementary Figure S1A).
A general note: The colour change of resazurin is a common sign of viable cells or microbes.

Test [2] has as its system neuroblastoma cells (Kelly, SK-N-BE(2)-C) compared to non-malignant myofibroblasts (WI-38, MRC-5). Nature of the test: Therapeutic window, neuroblastoma cells versus non-malignant myofibroblasts. To be noted: non-malignant myofibroblast IC50 versus neuroblastoma cell IC50. The format is cell-based, human. The protocol: as §2, §3
Test [3] concerns Kelly cells. Nature of the test: Alamar Blue cell viability assay, Kelly. The test is classed as cell-based. The following applies: Homo sapiens, MYCN amplified neuroblastoma cell line.
Excerpt: as §1, §2, §3

For test [4], the system named is SK-N-BE(2)-C cells. Nature of the test: Alamar Blue cell viability assay, SK-N-BE(2)-C. The format is cell-based. To be noted: Homo sapiens, MYCN amplified neuroblastoma cell line.
Excerpt: as §1, §2, §3

In test [5] the test system is WI-38 cells. Nature of the test: Alamar Blue cell viability assay, WI-38 non-malignant myofibroblasts. The format is cell-based. The following applies: Homo sapiens, read-out: IC50 WI-36.
Excerpt: as §1, §2, §3

Test [6] concerns TH-MYCN neuroblastoma mice. On the set-up: method as in PMID 31501192. The following applies: cited from earlier work.

As usually defined, the IC50 is the midpoint of a concentration-inhibition curve. As to `CN1CCN(Cc2ccc(NC(=O)Cc3ccc(Oc4cc(NC(=O)C5CC5)ncn4)cc3)cc2C(F)(F)F)CC1` [WS6, reference compound], the IC50 stood at 1400 nM in test [1], 650 nM in test [3], 750 nM in test [4] and 1500 nM in test [5]. Moreover, the “Therapeutic window (fold difference)” value in test [2] was 2.1 fold. Besides, in test [6], the tumorigenicity result is “significantly decreased tumorigenicity”.
